Data taken from the NIST ThermoML archive (doi:10.1016/j.jct.2005.08.009).
± gives the expanded uncertainty stated by the source.

What was measured:
[1] = 101 kPa, Liquid
[2] = xn = mol fraction of the nth substance listed; conditions: 101 kPa, Liquid, x2 = 0

## CC#N [acetonitrile]
[1]; 298.15 K
  mass density: 776.69 ± 1.9 kg/m3
  viscosity: 0.3417 ± 0.0053 mPa·s
[1]; 303.15 K
  mass density: 771.89 ± 1.9 kg/m3
  viscosity: 0.328 ± 0.0051 mPa·s
[1]; 308.15 K
  mass density: 765.46 ± 2 kg/m3
  viscosity: 0.3129 ± 0.0049 mPa·s
[1]; 313.15 K
  mass density: 760.86 ± 2 kg/m3
  viscosity: 0.3009 ± 0.0048 mPa·s
[1]; 318.15 K
  mass density: 754.76 ± 2 kg/m3
  viscosity: 0.2899 ± 0.0047 mPa·s

## O [water] + CC#N
[2]; 298.15 K
  viscosity: 0.8901 ± 0.011 mPa·s
[2]; 303.15 K
  viscosity: 0.7973 ± 0.01 mPa·s
[2]; 308.15 K
  viscosity: 0.7193 ± 0.0093 mPa·s
[2]; 313.15 K
  viscosity: 0.653 ± 0.0086 mPa·s
[2]; 318.15 K
  viscosity: 0.5961 ± 0.008 mPa·s
